ChEMBL document CHEMBL5727633, “Therapeutic compounds” (2020)

Legend:
[1] = target: CREB-binding protein (Homo sapiens, UniProt Q92793); experiment: In Vitro CBP Inhibition: The CBP-inhibitory activity of the compounds described herein was determined by calculating the IC50. More specifically, CBP inhibitor activity was assayed as follows: CBP was cloned and expressed in E. coli as His-tag protein and purified by Nickel affinity and gel-filtration chromatography. […] CBP binding and inhibition is assessed by monitoring the interaction of biotinylated H4-tetraacetyl peptide (AnaSpec, H4K5/8/12/16(Ac), biotin-labeled) with the target using the AlphaScreen technology (Perkin Elmer). In a 384-well ProxiPlate CBP (50 nM final) was combined with peptide (20 nM final) in 50 mM HEPES (pH 7.3), 10 mM NaCl, 0.25 mM TCEP, 0.1% (w/v) BSA, and 0.005% (w/v) Brij-35 either in the presence of DMSO (final 0.4% DMSO) or compound dilution series in DMSO. After 20 min incubation at room temp, Alpha-streptavidin donor beads and Nickel Chelate acceptor beads were added to a final concentration of 5 μg/mL.
Sequence of CREB-binding protein (Q92793 whole entry): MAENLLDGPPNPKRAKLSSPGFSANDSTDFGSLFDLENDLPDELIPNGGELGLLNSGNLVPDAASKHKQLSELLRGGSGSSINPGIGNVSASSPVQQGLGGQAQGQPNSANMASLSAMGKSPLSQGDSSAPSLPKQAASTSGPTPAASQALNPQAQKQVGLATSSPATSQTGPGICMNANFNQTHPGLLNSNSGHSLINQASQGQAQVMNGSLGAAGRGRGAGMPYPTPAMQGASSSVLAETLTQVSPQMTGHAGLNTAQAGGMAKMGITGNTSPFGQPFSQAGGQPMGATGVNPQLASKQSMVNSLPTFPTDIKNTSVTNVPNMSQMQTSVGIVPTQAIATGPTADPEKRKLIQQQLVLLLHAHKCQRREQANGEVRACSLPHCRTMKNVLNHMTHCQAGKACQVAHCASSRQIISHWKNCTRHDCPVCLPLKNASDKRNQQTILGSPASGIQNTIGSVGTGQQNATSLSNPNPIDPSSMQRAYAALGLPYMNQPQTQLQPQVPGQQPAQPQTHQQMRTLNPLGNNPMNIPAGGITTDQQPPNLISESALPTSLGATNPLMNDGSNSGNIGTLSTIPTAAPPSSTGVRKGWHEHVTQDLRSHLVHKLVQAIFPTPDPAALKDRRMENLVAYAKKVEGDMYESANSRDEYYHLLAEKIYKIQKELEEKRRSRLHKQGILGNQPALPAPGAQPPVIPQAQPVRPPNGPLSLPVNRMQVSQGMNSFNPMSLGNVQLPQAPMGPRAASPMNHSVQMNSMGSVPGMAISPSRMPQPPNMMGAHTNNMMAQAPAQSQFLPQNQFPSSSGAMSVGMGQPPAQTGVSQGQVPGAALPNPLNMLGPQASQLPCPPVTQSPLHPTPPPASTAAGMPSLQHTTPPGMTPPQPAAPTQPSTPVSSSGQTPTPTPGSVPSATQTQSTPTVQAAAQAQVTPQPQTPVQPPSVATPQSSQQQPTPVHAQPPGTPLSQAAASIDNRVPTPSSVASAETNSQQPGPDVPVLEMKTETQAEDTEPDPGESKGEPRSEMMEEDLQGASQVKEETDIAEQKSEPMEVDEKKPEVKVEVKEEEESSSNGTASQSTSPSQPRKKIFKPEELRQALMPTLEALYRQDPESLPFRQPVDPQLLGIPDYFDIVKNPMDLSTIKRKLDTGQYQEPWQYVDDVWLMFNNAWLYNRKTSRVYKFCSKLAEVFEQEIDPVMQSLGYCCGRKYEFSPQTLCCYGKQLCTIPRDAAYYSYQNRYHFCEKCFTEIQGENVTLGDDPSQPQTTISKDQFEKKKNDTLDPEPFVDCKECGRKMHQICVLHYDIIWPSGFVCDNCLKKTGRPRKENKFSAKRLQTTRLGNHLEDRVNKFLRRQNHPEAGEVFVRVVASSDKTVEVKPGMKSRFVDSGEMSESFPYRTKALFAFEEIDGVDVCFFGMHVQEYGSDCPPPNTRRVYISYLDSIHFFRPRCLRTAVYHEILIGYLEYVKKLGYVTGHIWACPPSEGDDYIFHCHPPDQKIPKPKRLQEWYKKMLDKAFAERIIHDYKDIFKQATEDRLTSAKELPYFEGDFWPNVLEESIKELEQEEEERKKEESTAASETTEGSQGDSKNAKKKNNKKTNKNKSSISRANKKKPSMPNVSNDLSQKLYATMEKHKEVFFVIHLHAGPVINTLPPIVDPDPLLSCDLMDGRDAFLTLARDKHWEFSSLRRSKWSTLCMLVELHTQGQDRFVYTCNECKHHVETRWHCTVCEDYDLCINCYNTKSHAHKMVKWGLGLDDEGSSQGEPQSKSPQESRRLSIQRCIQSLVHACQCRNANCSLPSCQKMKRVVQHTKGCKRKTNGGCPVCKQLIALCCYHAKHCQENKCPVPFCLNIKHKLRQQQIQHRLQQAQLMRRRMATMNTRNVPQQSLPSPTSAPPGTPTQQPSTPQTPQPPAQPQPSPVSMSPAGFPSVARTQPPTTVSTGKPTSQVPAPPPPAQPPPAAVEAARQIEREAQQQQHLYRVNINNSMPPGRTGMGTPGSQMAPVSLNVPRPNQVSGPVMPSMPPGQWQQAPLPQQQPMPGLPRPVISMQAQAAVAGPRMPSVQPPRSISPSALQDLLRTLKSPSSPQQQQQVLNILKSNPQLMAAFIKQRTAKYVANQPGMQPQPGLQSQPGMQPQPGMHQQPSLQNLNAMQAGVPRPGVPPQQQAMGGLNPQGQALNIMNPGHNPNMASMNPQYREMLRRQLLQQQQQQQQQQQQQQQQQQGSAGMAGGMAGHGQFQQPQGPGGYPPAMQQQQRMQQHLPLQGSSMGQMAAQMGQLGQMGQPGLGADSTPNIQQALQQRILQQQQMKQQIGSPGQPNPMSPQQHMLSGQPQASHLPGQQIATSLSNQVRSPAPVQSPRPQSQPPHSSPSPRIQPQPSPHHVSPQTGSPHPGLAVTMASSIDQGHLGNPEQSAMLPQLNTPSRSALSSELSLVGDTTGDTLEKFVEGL

[2] = target: Bromodomain-containing protein 4 (Homo sapiens, UniProt O60885); experiment: In Vitro Enzyme Inhibition Assay-BRD4 Inhibition: Inhibition of BRD4 was determined as described previously. See, e.g., U.S. Pat. No. 9,034,900.

Structure (SMILES)	IC50 [1]	IC50 [2]
CCOc1cc(=O)n(C)cc1-c1cnn(C(C)c2cccc(-c3cnn(C)c3)c2)c1 (configuration not stated)	< 500 nM	–
Cn1ccc(-c2cc(=O)n(C)cc2-c2cnn(-c3cccc(F)c3C#N)c2)cc1=O	< 500 nM	–
Cn1cc(-c2cnn(-c3ccccc3-c3nnn[nH]3)c2)c(-c2ccc(F)cc2)cc1=O	< 500 nM	–
Cn1cc(-c2cnn(Cc3ccccc3)c2)c(-c2cccc(Cl)c2)cc1=O	< 500 nM	–
COc1ccc(-c2cc(=O)n(C)cc2-c2cnn(-c3ccccc3C#N)c2)cc1	< 500 nM	–
COc1cc(-c2cc(=O)n(C)cc2-c2cnn(-c3ccccc3C(=O)NC#N)c2)ccn1	< 500 nM	–
COc1ccc(C(=O)O)c(-n2cc(-c3cn(C)c(=O)cc3-c3ccc(Cl)cc3)cn2)c1	< 500 nM	–
Cn1cc(-c2cnn(CC3CC3)c2)c(-c2ccc(C(=O)O)cc2)cc1=O	< 500 nM	> 5000 nM
COc1ccc(-c2cc(=O)n(C)cc2-c2cnn(-c3ccccc3C(=O)NC#N)c2)cn1	< 500 nM	–
Cc1cc(-c2cnn(C(c3ccccc3)C3CC3)c2)cn(C)c1=O (configuration not stated)	< 500 nM	–
Cn1cc(-c2cnn(Cc3ccccc3)c2)c(-c2cnn(CC(=O)O)c2)cc1=O	< 500 nM	–
Cn1cc(-c2cnn(CC3CC3)c2)c(-c2ccc(C(F)(F)F)cc2)cc1=O	< 500 nM	–
Cn1cc(-c2cnn(-c3ccccc3C(=O)O)c2)c(-c2ccc(Cl)cc2)cc1=O	< 500 nM	–
Cn1cc(-c2cnn(CC3CCCCC3)c2)c(-c2ccccc2)cc1=O	< 500 nM	–
COc1ccc(C#N)c(-n2cc(-c3cn(C)c(=O)cc3-c3ccc(Cl)cc3)cn2)c1	< 500 nM	–
CNC(=O)Cn1cc(-c2cn(C)c(=O)cc2-c2ccccc2)cn1	< 500 nM	–
CNC(=O)c1ccc(-c2cc(=O)n(C)cc2-c2cnn(CC3CC3)c2)cc1	< 500 nM	–
COc1ccc(-c2cc(=O)n(C)cc2-c2cnn(-c3ccccc3C(=O)O)c2)cc1	< 500 nM	–
Cn1cc(-c2cnn(Cc3ccccc3)c2)c(-c2ccc(Cl)cc2)cc1=O	< 500 nM	–
COc1ccccc1-c1cc(=O)n(C)cc1-c1cnn(Cc2ccccc2)c1	> 5000 nM	–
Cn1cc(COc2cc(=O)n(C)cc2-c2cnn(-c3ccccc3Cl)c2)cn1	< 500 nM	–
